# From patent US20240374631A1, “A COMPOSITION FOR IMPROVING GUT MICROBIOTA, BEHAVIOURAL PATTERN, ALPHA-SYNUCLEIN LEVELS, SLEEP PATTERN AND/OR SERUM MELATONIN” (GN Corporation Co Ltd, priority 2021, published 2024)
# System: gut microbiota
# Test: Gut microbiome analysis (16S rRNA sequencing of fecal samples) in STAM model of NASH
# Format: in vivo, C57BL/6J mice
# Settings: pre (baseline)
# Description: The study is reported in accordance with Animal Research: Reporting of In Vivo Experiments (ARRIVE) guidelines. C57BL/6J mice were obtained from Japan SLC, Inc. (Japan). All animals used in this study were cared for under the following guidelines: Act on Welfare and Management of Animals (Ministry of the Environment, Japan, Act No. 105 of Oct. 1, 1973), standards relating to the care and management of laboratory animals and relief of pain (Notice No. 88 of the Ministry of the Environment, Japan, Apr. 28, 2006) and the guidelines for proper conduct of animal experiments (Science Council of Japan, Jun. 1, 2006). Protocol approvals were obtained from SMC Laboratories, Japan's IACUC (Study reference no: […] Mice were maintained in a specific pathogen-free (SPF) facility under controlled conditions of temperature (23±3° C.), humidity (50±20%), lighting (12-hour artificial light and dark cycles; light from 8:00 to 20:00) and air exchange. The STAM model of NASH was induced as previously described [D10]. Mice were given a single subcutaneous injection of 200 μg streptozotocin (STZ, Sigma-Aldrich, USA) solution 2 days after birth and fed with a high-fat diet (HFD, 57 kcal % fat, Cat #HFD32, CLEA Japan, Inc., Japan) from 4-9 weeks of age. All mice develop liver steatosis and diabetes and at […] mice had established steatohepatitis, histologically. Studygroups: There were five study groups, described below. Eight mice were included in each study group. Eight NASH mice were orally administered vehicle supplemented with AFO-202 Beta Glucan at a dose of 1 mg/kg in a volume of 5 mL/kg once daily from 6 to 9 weeks of age. Eight NASH mice were orally administered vehicle supplemented with Telmisartan at a dose of 10 mg/kg once daily from 6 to 9 weeks of age. Frequency: Fecal samples were collected at the 6 weeks of age (before administration) and 9 weeks of age (before sacrifice). Procedure: At 6 weeks of age, fecal samples were collected from each mouse by clean catch method. […] A sterile petri dish was placed on the bench. Gently massage the abdomen, position the bottom of mouse over a fresh petri dish, and collect 1-2 fecal pellets. At sacrifice, fecal samples were aseptically collected from cecum. The tubes with feces were placed on ice immediately. These tubes were snap frozen in liquid nitrogen and stored at -80° C. for shipping. In this analysis, the 16S rRNA sequence data acquired by the next-generation sequencer from the fecal […] was used to perform community analysis using the QIIME2 program for microbial community analysis. The raw read data in FASTQ format output from the next-generation sequencer was trimmed to remove adapter sequences and low QV regions that may be included in the data. Cutadapt was used to remove adapter sequences from DNA sequencing reads. Trimmomatic was used as read trimming tool for Illumina NGS data. The adapter sequence was trimmed using the adapter trimming program “cutadapt” if the Trimming of the region at the end of the read sequence overlapped the corresponding sequence by at least one base (mismatch tolerance: 20%). When reads containing N were present in at least one of Read1 and Read2, both Read1 and Read2 were removed. Trimming of low QV regions was performed on the read data after processing using the QV trimming program “Trimmomatic” under the following conditions. The window of 20 bases is slid from the 5' side, and the area where the average QV is less than 20 is trimmed. After trimming, only the reads with more than 50 bases remaining in both Read1 and Read2 were taken as output. The microbial community analysis based on 16S rRNA sequence was performed on the sequence data trimmed in the previous section using the microbial community analysis program “QIIME2”. The annotation program “sklearn” included in QIIME2 is used to annotate the ASV (OTU) sequences. […]
compound,measurement,setting,value
CCCc1nc2c(C)cc(-c3nc4ccccc4n3C)cc2n1Cc1ccc(-c2ccccc2C(=O)O)cc1 [Telmisartan],"Abundance: Ruminococcaceae, Oscillospira, —",line r193,57
same,"Abundance: Lactobacillaceae, Lactobaccilus, reuteri",line r194,0
same,"Abundance: Coriobacteriaceae, Adlercreutzia, —",line r195,58
same,"Abundance: Lachnospiraceae, —, —",line r196,0
same,"Abundance: S24-7, —, —",line r197,64
same,"Abundance: Turicibacteraceae, Turicibacter, —",line r198,0
same,"Abundance: S24-7, —, —",line r199,45
same,"Abundance: Rikenellaceae, —, —",line r200,25
same,"Abundance: Enterobacteriaceae, Other, Other",line r201,0
same,"Abundance: Rikenellaceae, Other, Other",line r202,47
same,"Abundance: Lactobacillaceae, Lactobaccilus, Other",line r204,0
same,"Abundance: —, —, —",line r205,60
same,"Abundance: S24-7, —, —",line r206,27
same,"Abundance: S24-7, —, —",line r207,35
same,"Abundance: —, —, —",line r208,85
same,"Abundance: Enterobacteriaceae, Klebsiella, Other",line r209,0
same,"Abundance: —, —, —",line r210,63
same,"Abundance: Lachnospiraceae, Other, Other",line r211,48
same,"Abundance: Ruminococcaceae, Oscillospira, —",line r212,0
same,"Abundance: Ruminococcaceae, Oscillospira, —",line r213,71
same,"Abundance: Bacteroidaceae, Bacteroides, acidifaciens",line r214,27
same,"Abundance: Erysipelotrichaceae, —, —",line r215,51
same,"Abundance: Lachnospiraceae, Dorea, —",line r216,98
same,"Abundance: Enterobacteriaceae, Enterobacter, Other",line r217,0
same,"Abundance: Ruminococcaceae, Oscillospira, —",line r218,42
same,"Abundance: Ruminococcaceae, Other, Other",line r219,61
same,"Abundance: Ruminococcaceae, Oscillospira, —",line r220,0
same,"Abundance: Rikenellaceae, —, —",line r221,31
same,"Abundance: Lachnospiraceae, Other, Other",line r223,98
same,"Abundance: Other, Other, Other",line r224,18
same,"Abundance: Ruminococcaceae, Oscillospira, —",line r225,79
same,"Abundance: S24-7, —, —",line r226,38
same,"Abundance: Lachnospiraceae, —, —",line r227,3
same,"Abundance: Streptococcaceae, Staphylococcus, —",line r228,0
same,"Abundance: —, —, —",line r229,96
same,"Abundance: —, —, —",line r230,87
same,"Abundance: —, —, —",line r231,0
same,"Abundance: Other, Other, Other",line r232,10
same,"Abundance: Aerococcaceae, Aerococcus, —",line r233,0
same,"Abundance: Ruminococcaceae, —, —",line r234,0
same,"Abundance: —, —, —",line r235,61
same,"Abundance: Streptococcaceae, Staphylococcus, —",line r236,0
same,"Abundance: Ruminococcaceae, Oscillospira, —",line r237,0
same,"Abundance: —, —, —",line r238,0
same,"Abundance: Ruminococcaceae, Ruminococcus, —",line r239,0
same,"Abundance: —, —, —",line r240,6
same,"Abundance: Other, Other, Other",line r241,0
same,"Abundance: Ruminococcaceae, Oscillospira, —",line r242,30
same,"Abundance: Lachnospiraceae, [Ruminococcus], gnavus",line r243,27
same,"Abundance: Lachnospiraceae, —, —",line r244,0
same,"Abundance: Other, Other, Other",line r245,0
same,"Abundance: Ruminococcaceae, Oscillospira, —",line r246,37
same,"Abundance: —, —, —",line r247,69
same,"Abundance: Other, Other, Other",line r248,0
same,"Abundance: Other, Other, Other",line r249,0
same,"Abundance: Other, Other, Other",line r250,68
same,"Abundance: Lachnospiraceae, Clostridium, Other",line r251,0
same,"Abundance: Lachnospiraceae, —, —",line r252,0
same,"Abundance: Other, Other, Other",line r253,13
same,"Abundance: Other, Other, Other",line r254,23
same,"Abundance: Ruminococcaceae, Oscillospira, —",line r255,25
same,"Abundance: Desulfovibrionaceae, —, —",line r256,23
same,"Abundance: Dehalobacteriaceae, Dehalobacterium, —",line r257,24
same,"Abundance: Ruminococcaceae, Ruminococcus, —",line r259,44
same,"Abundance: Lachnospiraceae, Coprococcus, —",line r260,23
same,"Abundance: Ruminococcaceae, Oscillospira, —",line r261,0
same,"Abundance: Other, Other, Other",line r262,0
same,"Abundance: Lachnospiraceae, Coprococcus, —",line r263,34
same,"Abundance: Ruminococcaceae, Oscillospira, —",line r264,87
same,"Abundance: Christensenellaceae, —, —",line r265,37
same,"Abundance: S24-7, —, —",line r266,44
same,"Abundance: Ruminococcaceae, Oscillospira, —",line r267,95
same,"Abundance: Lachnospiraceae, Coprococcus, —",line r268,11
same,"Abundance: Lachnospiraceae, Other, Other",line r269,0
same,"Abundance: Erysipelotrichaceae, Clostridium, cocleatum",line r271,16
same,"Abundance: —, —, —",line r272,92
same,"Abundance: Desulfovibrionaceae, Bilophila, —",line r273,11
same,"Abundance: —, —, —",line r274,107
same,"Abundance: Corynebacteriaceae, Corynebacterium, stationis",line r275,0
same,"Abundance: Lachnospiraceae, Other, Other",line r276,0
same,"Abundance: Lachnospiraceae, Other, Other",line r277,0
same,"Abundance: Lachnospiraceae, —, —",line r278,14
same,"Abundance: Lachnospiraceae, —, —",line r279,31
same,"Abundance: —, —, —",line r280,108
same,"Abundance: —, —, —",line r281,0
same,"Abundance: —, —, —",line r282,0
same,"Abundance: Ruminococcaceae, —, —",line r283,27
same,"Abundance: —, —, —",line r284,96
same,"Abundance: Lachnospiraceae, —, —",line r285,90
same,"Abundance: Dehalobacteriaceae, Dehalobacterium, —",line r286,3
same,"Abundance: Other, Other, Other",line r287,0
same,"Abundance: Streptococcaceae, Streptococcus, luteciae",line r288,12
same,"Abundance: —, —, —",line r289,0
same,"Abundance: S24-7, —, —",line r290,0
same,"Abundance: Ruminococcaceae, Ruminococcus, —",line r292,10
same,"Abundance: Lachnospiraceae, Clostridium, Other",line r293,26
same,"Abundance: —, —, —",line r294,10
same,"Abundance: Ruminococcaceae, Oscillospira, —",line r295,11
same,"Abundance: Lachnospiraceae, Coprococcus, —",line r296,20
same,"Abundance: —, —, —",line r297,12
same,"Abundance: S24-7, —, —",line r298,0
same,"Abundance: Lachnospiraceae, —, —",line r300,0
same,"Abundance: Ruminococcaceae, Oscillospira, —",line r301,54
